Test results from ChEMBL document CHEMBL3885881, “DrugMatrix”.

Organism: Rattus norvegicus
Assay: DrugMatrix - Regimen: Daily Repeat
Assay type: toxicity, organism-based, Sprague-Dawley
Parameters: regimen Daily Repeat, gender Male, age 6-8 weeks
Conditions: in vivo, po, route oral GAVAGE, vehicle 100 % SALINE; for ALBUMIN / ALKALINE PHOSPHATASE / ASPARTATE AMINOTRANSFERASE / BLOOD UREA NITROGEN / CARBON DIOXIDE / CHLORIDE / CHOLESTEROL / CREATINE PHOSPHOKINASE / CREATININE / GLUCOSE / LACTATE DEHYDROGENASE / LIPASE / PHOSPHORUS / SODIUM / TOTAL BILIRUBIN / TOTAL PROTEIN / ALANINE AMINOTRANSFERASE: tissue Plasma; for ABSOLUTE BASOPHIL / ABSOLUTE EOSINOPHIL / ABSOLUTE LYMPHOCYTE / ABSOLUTE MONOCYTE / ABSOLUTE SEGMENTED NEUTROPHIL / BASOPHIL / EOSINOPHIL / ERYTHROCYTE COUNT / HEMATOCRIT / HEMOGLOBIN / LEUKOCYTE COUNT / LYMPHOCYTE / MEAN CORPUSCULAR HEMOGLOBIN / MEAN CORPUSCULAR HEMOGLOBIN CONCENTRATION / MONOCYTE / NEUTROPHIL / NUCLEATED RED BLOOD CELLS / PLATELET COUNT: tissue Blood
[1] = 700 mg/kg, 72 h, dose level Low, time 3 day
[2] = 700 mg/kg, […], dose level Low, time 7 day
[3] = 1400 mg/kg, 72 h, dose level High, time 3 day
[4] = 1400 mg/kg, 120 h, dose level High, time 5 day
[5] = 2100 mg/kg, 72 h, dose level High, time 3 day
[6] = 2100 mg/kg, […], dose level High, time 7 day

CN(C)C=O [DIMETHYLFORMAMIDE]
ALBUMIN [1]: 3.93 G/DL
ALKALINE PHOSPHATASE [1]: 282 u/L
ASPARTATE AMINOTRANSFERASE [1]: 140.33 u/L
BLOOD UREA NITROGEN [1]: 11.33 mg/dL
CARBON DIOXIDE [1]: 29.33 mmol/L
CHLORIDE [1]: 98.33 MEQ/L
CHOLESTEROL [1]: 93.83 mg/dL
CREATINE PHOSPHOKINASE [1]: 256.33 u/L
CREATININE [1]: 0.18 mg/dL
GLUCOSE [1]: 142 mg/dL
LACTATE DEHYDROGENASE [1]: 131.83 u/L
LIPASE [1]: 10.17 u/L
PHOSPHORUS [1]: 10.13 mg/dL
SODIUM [1]: 143.05 MEQ/L
TOTAL BILIRUBIN [1]: 0.2 mg/dL
TOTAL PROTEIN [1]: 5.9 G/DL
ABSOLUTE BASOPHIL [2]: 0 CELLS/uL
ABSOLUTE EOSINOPHIL [2]: 0 CELLS/uL
ABSOLUTE LYMPHOCYTE [2]: 8451.4 CELLS/uL
ABSOLUTE MONOCYTE [2]: 140.6 CELLS/uL
ABSOLUTE SEGMENTED NEUTROPHIL [2]: 648 CELLS/uL
BASOPHIL [2]: 0%
EOSINOPHIL [2]: 0%
ERYTHROCYTE COUNT [2]: 5.61 x10E6/uL
HEMATOCRIT [2]: 35.36%
HEMOGLOBIN [2]: 14.32 G/DL
LEUKOCYTE COUNT [2]: 9.24 x10E3/uL
LYMPHOCYTE [2]: 91%
MEAN CORPUSCULAR HEMOGLOBIN [2]: 25.62 pg
MEAN CORPUSCULAR HEMOGLOBIN CONCENTRATION [2]: 40.5 G/DL
MONOCYTE [2]: 1.6%
NEUTROPHIL [2]: 7.4%
NUCLEATED RED BLOOD CELLS [2]: 0 /100WBC
PLATELET COUNT [2]: 1220.6 x10E3/uL
ALANINE AMINOTRANSFERASE [2]: 100.4 u/L
ALBUMIN [2]: 4.46 G/DL
ALKALINE PHOSPHATASE [2]: 218 u/L
ASPARTATE AMINOTRANSFERASE [2]: 142.4 u/L
BLOOD UREA NITROGEN [2]: 16.4 mg/dL
CARBON DIOXIDE [2]: 30 mmol/L
CHLORIDE [2]: 98.6 MEQ/L
CHOLESTEROL [2]: 102 mg/dL
CREATINE PHOSPHOKINASE [2]: 220.4 u/L
CREATININE [2]: 0.23 mg/dL
GLUCOSE [2]: 122.8 mg/dL
LACTATE DEHYDROGENASE [2]: 232.2 u/L
LIPASE [2]: 11 u/L
PHOSPHORUS [2]: 12.18 mg/dL
SODIUM [2]: 145.44 MEQ/L
TOTAL BILIRUBIN [2]: 0.2 mg/dL
TOTAL PROTEIN [2]: 6.06 G/DL
ABSOLUTE BASOPHIL [3]: 0 CELLS/uL
ABSOLUTE EOSINOPHIL [3]: 0 CELLS/uL
ABSOLUTE LYMPHOCYTE [3]: 16367 CELLS/uL
ABSOLUTE MONOCYTE [3]: 177 CELLS/uL
ABSOLUTE SEGMENTED NEUTROPHIL [3]: 1156 CELLS/uL
BASOPHIL [3]: 0%
EOSINOPHIL [3]: 0%
ERYTHROCYTE COUNT [3]: 6.79 x10E6/uL
HEMATOCRIT [3]: 42.9%
HEMOGLOBIN [3]: 16.15 G/DL
LEUKOCYTE COUNT [3]: 17.7 x10E3/uL
LYMPHOCYTE [3]: 92.5%
MEAN CORPUSCULAR HEMOGLOBIN [3]: 23.8 pg
MEAN CORPUSCULAR HEMOGLOBIN CONCENTRATION [3]: 37.65 G/DL
MONOCYTE [3]: 1%
NEUTROPHIL [3]: 6.5%
NUCLEATED RED BLOOD CELLS [3]: 0 /100WBC
PLATELET COUNT [3]: 447 x10E3/uL
ALANINE AMINOTRANSFERASE [3]: 1328 u/L
ALBUMIN [3]: 4.1 G/DL
ALKALINE PHOSPHATASE [3]: 424 u/L
ASPARTATE AMINOTRANSFERASE [3]: 1614.5 u/L
BLOOD UREA NITROGEN [3]: 20 mg/dL
CARBON DIOXIDE [3]: 33 mmol/L
CHLORIDE [3]: 99.5 MEQ/L
CHOLESTEROL [3]: 70.5 mg/dL
CREATINE PHOSPHOKINASE [3]: 326.5 u/L
CREATININE [3]: 0.47 mg/dL
GLUCOSE [3]: 210.5 mg/dL
LACTATE DEHYDROGENASE [3]: 461 u/L
LIPASE [3]: 11 u/L
PHOSPHORUS [3]: 9 mg/dL
SODIUM [3]: 148.05 MEQ/L
TOTAL BILIRUBIN [3]: 0.35 mg/dL
TOTAL PROTEIN [3]: 5.8 G/DL
ABSOLUTE BASOPHIL [4]: 0 CELLS/uL
ABSOLUTE EOSINOPHIL [4]: 0 CELLS/uL
ABSOLUTE LYMPHOCYTE [4]: 7335 CELLS/uL
ABSOLUTE MONOCYTE [4]: 49.5 CELLS/uL
ABSOLUTE SEGMENTED NEUTROPHIL [4]: 565.5 CELLS/uL
BASOPHIL [4]: 0%
EOSINOPHIL [4]: 0%
ERYTHROCYTE COUNT [4]: 7.28 x10E6/uL
HEMATOCRIT [4]: 45.7%
HEMOGLOBIN [4]: 16.7 G/DL
LEUKOCYTE COUNT [4]: 7.95 x10E3/uL
LYMPHOCYTE [4]: 93%
MEAN CORPUSCULAR HEMOGLOBIN [4]: 22.95 pg
MEAN CORPUSCULAR HEMOGLOBIN CONCENTRATION [4]: 36.55 G/DL
MONOCYTE [4]: 0.5%
NEUTROPHIL [4]: 6.5%
NUCLEATED RED BLOOD CELLS [4]: 0 /100WBC
PLATELET COUNT [4]: 998 x10E3/uL
ALANINE AMINOTRANSFERASE [4]: 5117.67 u/L
ALBUMIN [4]: 4.53 G/DL
ALKALINE PHOSPHATASE [4]: 286.67 u/L
ASPARTATE AMINOTRANSFERASE [4]: 8354 u/L
BLOOD UREA NITROGEN [4]: 21 mg/dL
CARBON DIOXIDE [4]: 35 mmol/L
CHLORIDE [4]: 92 MEQ/L
CHOLESTEROL [4]: 136 mg/dL
CREATINE PHOSPHOKINASE [4]: 493.33 u/L
CREATININE [4]: 0.36 mg/dL
GLUCOSE [4]: 145 mg/dL
LACTATE DEHYDROGENASE [4]: 42966.33 u/L
LIPASE [4]: 12.33 u/L
PHOSPHORUS [4]: 13.03 mg/dL
SODIUM [4]: 146.2 MEQ/L
TOTAL BILIRUBIN [4]: 0.5 mg/dL
TOTAL PROTEIN [4]: 7.33 G/DL
ABSOLUTE BASOPHIL [5]: 0 CELLS/uL
ABSOLUTE EOSINOPHIL [5]: 16 CELLS/uL
ABSOLUTE LYMPHOCYTE [5]: 6718 CELLS/uL
ABSOLUTE MONOCYTE [5]: 23.33 CELLS/uL
ABSOLUTE SEGMENTED NEUTROPHIL [5]: 509.33 CELLS/uL
BASOPHIL [5]: 0%
EOSINOPHIL [5]: 0.17%
ERYTHROCYTE COUNT [5]: 5.8 x10E6/uL
HEMATOCRIT [5]: 38.27%
HEMOGLOBIN [5]: 13.57 G/DL
LEUKOCYTE COUNT [5]: 7.27 x10E3/uL
LYMPHOCYTE [5]: 92.5%
MEAN CORPUSCULAR HEMOGLOBIN [5]: 23.42 pg
MEAN CORPUSCULAR HEMOGLOBIN CONCENTRATION [5]: 35.45 G/DL
MONOCYTE [5]: 0.33%
NEUTROPHIL [5]: 7%
NUCLEATED RED BLOOD CELLS [5]: 0 /100WBC
PLATELET COUNT [5]: 1059 x10E3/uL
ALANINE AMINOTRANSFERASE [5]: 105.67 u/L
ALBUMIN [5]: 4.47 G/DL
ALKALINE PHOSPHATASE [5]: 224.5 u/L
ASPARTATE AMINOTRANSFERASE [5]: 117.33 u/L
BLOOD UREA NITROGEN [5]: 14.5 mg/dL
CARBON DIOXIDE [5]: 31.33 mmol/L
CHLORIDE [5]: 100.17 MEQ/L
CHOLESTEROL [5]: 99.33 mg/dL
CREATINE PHOSPHOKINASE [5]: 191 u/L
CREATININE [5]: 0.22 mg/dL
GLUCOSE [5]: 143.67 mg/dL
LACTATE DEHYDROGENASE [5]: 109.83 u/L
LIPASE [5]: 10.33 u/L
PHOSPHORUS [5]: 9.67 mg/dL
SODIUM [5]: 146.58 MEQ/L
TOTAL BILIRUBIN [5]: 0.17 mg/dL
TOTAL PROTEIN [5]: 6.25 G/DL
ABSOLUTE BASOPHIL [6]: 0 CELLS/uL
ABSOLUTE EOSINOPHIL [6]: 0 CELLS/uL
ABSOLUTE LYMPHOCYTE [6]: 6108.5 CELLS/uL
ABSOLUTE MONOCYTE [6]: 208.75 CELLS/uL
ABSOLUTE SEGMENTED NEUTROPHIL [6]: 1557.75 CELLS/uL
BASOPHIL [6]: 0%
EOSINOPHIL [6]: 0%
ERYTHROCYTE COUNT [6]: 6.06 x10E6/uL
HEMATOCRIT [6]: 37.55%
HEMOGLOBIN [6]: 14.95 G/DL
LEUKOCYTE COUNT [6]: 7.88 x10E3/uL
LYMPHOCYTE [6]: 79.5%
MEAN CORPUSCULAR HEMOGLOBIN [6]: 24.67 pg
MEAN CORPUSCULAR HEMOGLOBIN CONCENTRATION [6]: 39.83 G/DL
MONOCYTE [6]: 2.5%
NEUTROPHIL [6]: 18%
NUCLEATED RED BLOOD CELLS [6]: 0 /100WBC
PLATELET COUNT [6]: 396 x10E3/uL
ALANINE AMINOTRANSFERASE [6]: 452.75 u/L
ALBUMIN [6]: 4.22 G/DL
ALKALINE PHOSPHATASE [6]: 271.25 u/L
ASPARTATE AMINOTRANSFERASE [6]: 1219.25 u/L
BLOOD UREA NITROGEN [6]: 15.25 mg/dL
CARBON DIOXIDE [6]: 29 mmol/L
CHLORIDE [6]: 103 MEQ/L
CHOLESTEROL [6]: 75.75 mg/dL
CREATINE PHOSPHOKINASE [6]: 261 u/L
CREATININE [6]: 0.25 mg/dL
GLUCOSE [6]: 147.75 mg/dL
LACTATE DEHYDROGENASE [6]: 101.25 u/L
LIPASE [6]: 10.25 u/L
PHOSPHORUS [6]: 7.55 mg/dL
SODIUM [6]: 147.12 MEQ/L
TOTAL BILIRUBIN [6]: 0.33 mg/dL
TOTAL PROTEIN [6]: 5.7 G/DL
